Results as given in ChEMBL document CHEMBL1201862, “PubChem BioAssay data set” (2004).
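In this assay, cells in 96-well plates receive the compound at five concentrations for 48 hours. Endpoints are linearly interpolated between the surrounding concentrations. GI50 is the concentration that inhibits growth by half.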 The source made the active and inactive calls. Cut-off read from the data, not from the text of the source: active = GI50 up to about 1.1 µM and inactive = higher.

How the values were obtained:
Test in all cases: NCI tumour cell line growth inhibition, 48 h
786-0 = system: 786-0
A498 = system: A498
A549 = system: A549
ACHN = system: ACHN
BT-549 = system: BT-549
CAKI-1 = system: CAKI-1
CCRF-CEM = system: CCRF-CEM
COLO 205 = system: COLO 205
DU-145 = system: DU-145
EKVX = system: EKVX
HCC 2998 = system: HCC 2998
HCT-116 = system: HCT-116
HCT-15 = system: HCT-15
HL-60 = system: HL-60
HOP-62 = system: HOP-62
HOP-92 = system: HOP-92
HT-29 = system: HT-29
Hs-578T = system: Hs-578T
IGROV-1 = system: IGROV-1
K562 = system: K562
KM12 = system: KM12
LOX IMVI = system: LOX IMVI
M14 = system: M14
MCF7 = system: MCF7
MDA-MB-231 = system: MDA-MB-231
MDA-MB-435 = system: MDA-MB-435
MDA-N = system: MDA-N
Malme-3M = system: Malme-3M
NCI-H226 = system: NCI-H226
NCI-H23 = system: NCI-H23
NCI-H460 = system: NCI-H460
NCI-H522 = system: NCI-H522
NCI/ADR-RES = system: NCI/ADR-RES
OVCAR-3 = system: OVCAR-3
OVCAR-4 = system: OVCAR-4
OVCAR-5 = system: OVCAR-5
OVCAR-8 = system: OVCAR-8
PC-3 = system: PC-3
RPMI-8226 = system: RPMI-8226
RXF 393 = system: RXF 393
SF-268 = system: SF-268
SF-295 = system: SF-295
SK-MEL-28 = system: SK-MEL-28
SK-MEL-2 = system: SK-MEL-2
SK-MEL-5 = system: SK-MEL-5
SK-OV-3 = system: SK-OV-3
SN12C = system: SN12C
SNB-19 = system: SNB-19
SNB-75 = system: SNB-75
SR = system: SR
SW-620 = system: SW-620
T47D = system: T47D
TK-10 = system: TK-10
U-251 = system: U-251
UACC-257 = system: UACC-257
UACC-62 = system: UACC-62
UO-31 = system: UO-31

SMILES: OC(Cc1cccnc1)(c1ccccc1)c1ccccc1
- GI50 (786-0): > 100 µM (inactive)
- GI50 (A498): > 100 µM (inactive)
- GI50 (A549): > 100 µM (inactive)
- GI50 (ACHN): > 100 µM (inactive)
- GI50 (BT-549): 73.6 µM (inactive)
- GI50 (CAKI-1): > 100 µM (inactive)
- GI50 (CCRF-CEM): > 100 µM (inactive)
- GI50 (COLO 205): > 100 µM (inactive)
- GI50 (DU-145): > 100 µM (inactive)
- GI50 (EKVX): 17.8 µM (inactive)
- GI50 (HCC 2998): > 100 µM (inactive)
- GI50 (HCT-116): > 100 µM (inactive)
- GI50 (HCT-15): > 100 µM
- GI50 (HL-60): 55.5 µM (inactive)
- GI50 (HOP-62): > 100 µM (inactive)
- GI50 (HOP-92): > 100 µM (inactive)
- GI50 (HT-29): > 100 µM (inactive)
- GI50 (Hs-578T): > 100 µM (inactive)
- GI50 (IGROV-1): > 100 µM (inactive)
- GI50 (K562): 72.1 µM (inactive)
- GI50 (KM12): 59.7 µM (inactive)
- GI50 (LOX IMVI): > 100 µM (inactive)
- GI50 (M14): 68.1 µM (inactive)
- GI50 (MCF7): > 100 µM (inactive)
- GI50 (MDA-MB-231): > 100 µM (inactive)
- GI50 (MDA-MB-435): 47 µM (inactive)
- GI50 (MDA-N): 47.2 µM (inactive)
- GI50 (Malme-3M): > 100 µM (inactive)
- GI50 (NCI-H226): > 100 µM (inactive)
- GI50 (NCI-H23): 70.8 µM (inactive)
- GI50 (NCI-H460): > 100 µM (inactive)
- GI50 (NCI-H522): 47 µM (inactive)
- GI50 (NCI/ADR-RES): 57.9 µM (inactive)
- GI50 (OVCAR-3): > 100 µM (inactive)
- GI50 (OVCAR-4): > 100 µM (inactive)
- GI50 (OVCAR-5): > 100 µM (inactive)
- GI50 (OVCAR-8): > 100 µM (inactive)
- GI50 (PC-3): > 100 µM (inactive)
- GI50 (RPMI-8226): 42.9 µM (inactive)
- GI50 (RXF 393): > 100 µM (inactive)
- GI50 (SF-268): > 100 µM (inactive)
- GI50 (SF-295): 53.8 µM (inactive)
- GI50 (SK-MEL-28): > 100 µM (inactive)
- GI50 (SK-MEL-2): > 100 µM (inactive)
- GI50 (SK-MEL-5): 32.9 µM (inactive)
- GI50 (SK-OV-3): > 100 µM (inactive)
- GI50 (SN12C): > 100 µM (inactive)
- GI50 (SNB-19): > 100 µM (inactive)
- GI50 (SNB-75): > 100 µM (inactive)
- GI50 (SR): 58.7 µM (inactive)
- GI50 (SW-620): > 100 µM (inactive)
- GI50 (T47D): 59 µM (inactive)
- GI50 (TK-10): > 100 µM (inactive)
- GI50 (U-251): > 100 µM (inactive)
- GI50 (UACC-257): 41.3 µM (inactive)
- GI50 (UACC-62): 91.6 µM (inactive)
- GI50 (UO-31): > 100 µM (inactive)

SMILES: Nc1ccccc1.O=P(O)(OP(=O)(O)c1ccccc1)c1ccccc1
- GI50 (786-0): > 100 µM (inactive)
- GI50 (A498): > 100 µM (inactive)
- GI50 (A549): > 100 µM (inactive)
- GI50 (ACHN): > 100 µM (inactive)
- GI50 (BT-549): > 100 µM (inactive)
- GI50 (CAKI-1): > 100 µM (inactive)
- GI50 (CCRF-CEM): > 100 µM (inactive)
- GI50 (COLO 205): > 100 µM (inactive)
- GI50 (DU-145): > 100 µM (inactive)
- GI50 (EKVX): > 100 µM (inactive)
- GI50 (HCC 2998): > 100 µM (inactive)
- GI50 (HCT-116): > 100 µM (inactive)
- GI50 (HCT-15): 89.3 µM
- GI50 (HL-60): 65.3 µM (inactive)
- GI50 (HOP-62): > 100 µM (inactive)
- GI50 (HOP-92): > 100 µM (inactive)
- GI50 (HT-29): > 100 µM (inactive)
- GI50 (Hs-578T): > 100 µM (inactive)
- GI50 (IGROV-1): > 100 µM (inactive)
- GI50 (K562): > 100 µM (inactive)
- GI50 (KM12): > 100 µM (inactive)
- GI50 (LOX IMVI): > 100 µM (inactive)
- GI50 (M14): > 100 µM (inactive)
- GI50 (MCF7): > 100 µM (inactive)
- GI50 (MDA-MB-231): > 100 µM (inactive)
- GI50 (MDA-MB-435): > 100 µM (inactive)
- GI50 (MDA-N): > 100 µM (inactive)
- GI50 (Malme-3M): > 100 µM (inactive)
- GI50 (NCI-H226): > 100 µM (inactive)
- GI50 (NCI-H23): > 100 µM (inactive)
- GI50 (NCI-H460): > 100 µM (inactive)
- GI50 (NCI-H522): > 100 µM (inactive)
- GI50 (NCI/ADR-RES): > 100 µM (inactive)
- GI50 (OVCAR-3): > 100 µM (inactive)
- GI50 (OVCAR-4): > 100 µM (inactive)
- GI50 (OVCAR-5): > 100 µM (inactive)
- GI50 (OVCAR-8): > 100 µM (inactive)
- GI50 (PC-3): > 100 µM (inactive)
- GI50 (RPMI-8226): > 100 µM (inactive)
- GI50 (RXF 393): > 100 µM (inactive)
- GI50 (SF-268): > 100 µM (inactive)
- GI50 (SF-295): 96.4 µM (inactive)
- GI50 (SK-MEL-28): > 100 µM (inactive)
- GI50 (SK-MEL-2): > 100 µM (inactive)
- GI50 (SK-MEL-5): > 100 µM (inactive)
- GI50 (SK-OV-3): > 100 µM (inactive)
- GI50 (SN12C): > 100 µM (inactive)
- GI50 (SNB-19): > 100 µM (inactive)
- GI50 (SNB-75): > 100 µM (inactive)
- GI50 (SR): > 100 µM (inactive)
- GI50 (SW-620): > 100 µM (inactive)
- GI50 (T47D): > 100 µM (inactive)
- GI50 (TK-10): > 100 µM (inactive)
- GI50 (U-251): > 100 µM (inactive)
- GI50 (UACC-257): > 100 µM (inactive)
- GI50 (UACC-62): > 100 µM (inactive)
- GI50 (UO-31): > 100 µM (inactive)
